How the values were obtained:
SETFA = assay: greenhouse pre-emergence herbicidal test; assay type: in vivo, Setaria faberi; conditions: pre-emergence method, scale from 0 to 100
Source text: The seeds of the test plants were sown separately for each species. For the pre-emergence treatment, the active ingredients, which had been suspended or emulsified in water, were applied directly after sowing by means of finely distributing nozzles. The containers were irrigated gently to promote germination and growth and subsequently covered with transparent plastic hoods until the plants had rooted. This cover caused uniform germination of the test plants, unless this had been impaired by the active ingredients. Depending on the species, the plants were kept at 10-25° C. or 20-35° C., respectively. The test period extended over 2 to 4 weeks. During this time, the plants were tended, and their response to the individual treatments was evaluated. Evaluation was carried out using a scale from 0 to 100. 100 means no emergence of the plants, or complete destruction of at least the aerial moieties, and 0 means no damage, or normal course of growth. […] The plants used in the greenhouse experiments were of the following species: [table]

ABUTH = assay: greenhouse post-emergence herbicidal test; assay type: in vivo, Abutilon theophrasti; conditions: post-emergence method, scale from 0 to 100
Summary of the method: (§1)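 Scoring 0 (no damage) to 100 (no emergence or total destruction of aerial parts), taken over a 2 to 4 week period after post-emergence treatment at 3 to 15 cm plant height. Compounds applied as aqueous suspension or emulsion; greenhouse temperature 10-25° C. or 20-35° C. depending on species.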

ECHCG [1] = assay: greenhouse post-emergence herbicidal test; assay type: in vivo, Echinocloa crus-galli; conditions: post-emergence method, scale from 0 to 100
Summary of the method: as §1

AMARE = assay: greenhouse post-emergence herbicidal test; assay type: in vivo, Amaranthus retroflexus; conditions: post-emergence method, application rate 1000 g/ha, scale from 0 to 100
Summary of the method: as §1

APESV = assay: greenhouse pre-emergence herbicidal test; assay type: in vivo, Apera spica-venti; conditions: pre-emergence method, application rate 1000 g/ha, scale from 0 to 100
Summary of the method: (§2)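 Damage was rated on a 0 to 100 scale, where 0 is normal growth and 100 is no emergence or full destruction of aerial parts, after 2 to 4 weeks. Treatment was applied pre-emergence, right after sowing, as an aqueous suspension or emulsion via fine nozzles.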

ECHCG [2] = assay: greenhouse pre-emergence herbicidal test; assay type: in vivo, Echinocloa crus-galli; conditions: pre-emergence method, application rate 1000 g/ha, scale from 0 to 100
Summary of the method: as §2

O=C(O)c1nc(C2CCC2)ncc1-c1ccccc1Cl [example 2, 5-(2-Chlorophenyl)-2-cyclobutyl-pyrimidine-4-carboxylate]
herbicidal activity against SETFA (SETFA; application rate 1000 g/ha): good (A good herbicidal activity is given at values of at least 70) | herbicidal activity against ABUTH (ABUTH; application rate 1000 g/ha): good (A good herbicidal activity is given at values of at least 70) | herbicidal activity against ECHCG (ECHCG [1]; application rate 1000 g/ha): good (A good herbicidal activity is given at values of at least 70)

CCc1ncc(-c2cc(C)ccc2C)c(C(=O)O)n1 [example 9]
herbicidal activity against AMARE (AMARE): good (A good herbicidal activity is given at values of at least 70) | herbicidal activity against APESV (APESV): very good (a very good herbicidal activity is given at values of at least 85) | herbicidal activity against SETFA (SETFA; application rate 1000 g/ha): very good (a very good herbicidal activity is given at values of at least 85) | herbicidal activity against ABUTH (ABUTH; application rate 1000 g/ha): very good (a very good herbicidal activity is given at values of at least 85)

COC(=O)c1nc(C(C)C)ncc1-c1ccccc1C [example 37]
herbicidal activity against SETFA (SETFA; application rate 1000 g/ha): very good (a very good herbicidal activity is given at values of at least 85) | herbicidal activity against ECHCG (ECHCG [1]; application rate 1000 g/ha): very good (a very good herbicidal activity is given at values of at least 85) | herbicidal activity against ECHCG (ECHCG [2]): very good (a very good herbicidal activity is given at values of at least 85)

CSc1ncc(-c2cc(C)ccc2Cl)c(C(=O)O)n1 [example 86]
herbicidal activity against SETFA (SETFA; application rate 1000 g/ha): good (A good herbicidal activity is given at values of at least 70) | herbicidal activity against ECHCG (ECHCG [2]): good (A good herbicidal activity is given at values of at least 70)

CSc1ncc(-c2ccccc2S(C)(=O)=O)c(C(=O)O)n1 [example 114]
herbicidal activity against SETFA (SETFA; application rate 2000 g/ha): very good (a very good herbicidal activity is given at values of at least 85)

Cc1ccccc1-c1cnc(S(C)(=O)=O)nc1C(=O)O [example 127]
herbicidal activity against SETFA (SETFA; application rate 2000 g/ha): good (A good herbicidal activity is given at values of at least 70)

COC(=O)c1nc(C2CCC2)ncc1-c1ccccc1C [example 264]
herbicidal activity against AMARE (AMARE): very good (a very good herbicidal activity is given at values of at least 85) | herbicidal activity against APESV (APESV): good (A good herbicidal activity is given at values of at least 70) | herbicidal activity against SETFA (SETFA; application rate 1000 g/ha): very good (a very good herbicidal activity is given at values of at least 85) | herbicidal activity against ABUTH (ABUTH; application rate 1000 g/ha): very good (a very good herbicidal activity is given at values of at least 85)

Cc1ccccc1-c1cnc(-c2ccccc2)nc1C(=O)O [example 271]
herbicidal activity against SETFA (SETFA; application rate 500 g/ha): good (A good herbicidal activity is given at values of at least 70) | herbicidal activity against ABUTH (ABUTH; application rate 500 g/ha): very good (a very good herbicidal activity is given at values of at least 85) | herbicidal activity against ECHCG (ECHCG [1]; application rate 500 g/ha): very good (a very good herbicidal activity is given at values of at least 85)

COC(=O)c1nc(C2CC2)ncc1-c1c(Cl)cccc1C(F)(F)F [example 302]
herbicidal activity against AMARE (AMARE): very good (a very good herbicidal activity is given at values of at least 85) | herbicidal activity against SETFA (SETFA; application rate 1000 g/ha): very good (a very good herbicidal activity is given at values of at least 85) | herbicidal activity against ECHCG (ECHCG [1]; application rate 1000 g/ha): very good (a very good herbicidal activity is given at values of at least 85)

CCOc1cccc(Br)c1-c1cnc(C2CC2)nc1C(=O)O [example 303]
herbicidal activity against APESV (APESV): very good (a very good herbicidal activity is given at values of at least 85) | herbicidal activity against SETFA (SETFA; application rate 1000 g/ha): very good (a very good herbicidal activity is given at values of at least 85) | herbicidal activity against ECHCG (ECHCG [1]; application rate 1000 g/ha): very good (a very good herbicidal activity is given at values of at least 85)
